What all share (assay type): cell-based
In one experiment the test system is TMD8 cells. Nature of the experiment: Resazurin cell viability (proliferation) assay in TMD8 DLBCL cells. The conditions noted are these: TMD8 cells (BTK dependent), 72 h, 50% growth inhibition vs vehicle, read-out: TMD8 Prol GI50. A digest of the protocol: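 TMD8 cells were seeded at 1×10^4 per well and treated 3 h later with compound, in an 8-point 1:4 dilution series starting at 1 μM, or DMSO, for 72 h at 37° C. Resazurin was added at 13 μg/ml final for the last 2 h, and fluorescence was read at ex 530/em 600 nm. GI50 versus vehicle was derived by curve fitting from triplicates.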

The next experiment has as its system OCI-LY3 cells. Briefly: Resazurin cell viability (proliferation) assay in OCI-LY3 DLBCL cells. Conditions: OCI-LY3 cells (BTK independent), 72 h, 50% growth inhibition vs vehicle, read-out: OCI-LY3 Prol GI50. In short, it runs like this:
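Cells were seeded at 1×10^4 per well and dosed 3 h later: 8-point 1:4 dilutions from 10 μM (OCI-LY3), in triplicate, 72 h at 37 °C. Resazurin (13 μg/ml final) was added for the last 2 h and fluorescence read at 530/600 nm. GI50 is relative to DMSO vehicle, typically from ≥2 independent experiments.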
Background: Resazurin is reduced to fluorescent resorufin, in cell work by metabolically active cells.

Another experiment deals with T1, BTK-GFP (Homo sapiens, UniProt Q06187+Q96SW2).
T1 construct: expressed in transfected cells; host or cells: HEK293A (Invitrogen R70507), lentiviral transduction with pLenti6-BTK-GFP-Ires-RFP, blasticidin selection
Briefly: BTK-GFP protein abundance flow cytometry assay in HEK293A cells. Conditions: HEK293A BTK-GFP-iresRFP cells, 24 h; for DC50: GFP signal by flow cytometry, concentration at which 50% maximal degradation was observed; for BTK deg Amax: % protein remaining at the concentration at which maximum degradation is seen. In short, it runs like this: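 HEK293A cells stably expressing bicistronic BTK-GFP-IRES-RFP (C-terminal GFP tag) via lentiviral vector. Degradation read by flow cytometry as loss of GFP signal after degrader treatment. DC50 is concentration giving 50% maximal degradation; Amax is % protein remaining at maximal degradation.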
For orientation: A flow cytometer gives signals particle by particle.

Eight compounds from patent US12441733B2, “Substituted 2,4-dioxotetrahydropyrimidines as intermediates in the synthesis of bruton's tyrosine kinase inhibitors” (Novartis AG, priority 2018, dated 2025) can be followed below.

Where two headings read alike, the source gives them in different places.

T1 sequence (Q06187 whole entry): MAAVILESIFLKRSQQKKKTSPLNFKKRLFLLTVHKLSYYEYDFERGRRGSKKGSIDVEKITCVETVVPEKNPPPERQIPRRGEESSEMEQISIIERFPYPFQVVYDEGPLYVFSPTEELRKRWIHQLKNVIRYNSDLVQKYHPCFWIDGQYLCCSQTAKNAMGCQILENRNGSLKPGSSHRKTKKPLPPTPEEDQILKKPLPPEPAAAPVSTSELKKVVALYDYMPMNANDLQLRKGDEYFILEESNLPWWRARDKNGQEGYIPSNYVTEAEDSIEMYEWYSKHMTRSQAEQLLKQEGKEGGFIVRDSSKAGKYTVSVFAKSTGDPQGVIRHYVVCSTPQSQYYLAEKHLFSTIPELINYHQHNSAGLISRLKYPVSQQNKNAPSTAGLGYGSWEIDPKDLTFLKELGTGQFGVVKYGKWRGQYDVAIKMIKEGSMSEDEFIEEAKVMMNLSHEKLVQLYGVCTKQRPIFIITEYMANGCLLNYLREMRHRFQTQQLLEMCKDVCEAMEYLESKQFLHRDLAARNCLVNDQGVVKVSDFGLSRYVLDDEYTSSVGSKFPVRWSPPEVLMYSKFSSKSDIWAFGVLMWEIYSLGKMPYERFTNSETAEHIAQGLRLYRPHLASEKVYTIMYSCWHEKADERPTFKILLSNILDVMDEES
T1 sequence (Q96SW2 whole entry): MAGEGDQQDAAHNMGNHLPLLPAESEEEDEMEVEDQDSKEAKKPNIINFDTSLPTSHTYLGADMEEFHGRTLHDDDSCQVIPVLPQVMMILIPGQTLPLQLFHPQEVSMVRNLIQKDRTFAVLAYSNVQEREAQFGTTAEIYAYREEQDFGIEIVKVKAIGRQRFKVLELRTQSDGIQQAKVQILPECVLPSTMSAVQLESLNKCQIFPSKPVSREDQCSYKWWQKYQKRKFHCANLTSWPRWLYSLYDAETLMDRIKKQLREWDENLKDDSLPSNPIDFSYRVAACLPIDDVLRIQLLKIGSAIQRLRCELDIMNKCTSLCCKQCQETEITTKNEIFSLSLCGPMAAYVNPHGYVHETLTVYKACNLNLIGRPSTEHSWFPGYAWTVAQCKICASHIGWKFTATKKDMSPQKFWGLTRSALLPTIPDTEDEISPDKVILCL
T1 sequence (Q16531 whole entry partner): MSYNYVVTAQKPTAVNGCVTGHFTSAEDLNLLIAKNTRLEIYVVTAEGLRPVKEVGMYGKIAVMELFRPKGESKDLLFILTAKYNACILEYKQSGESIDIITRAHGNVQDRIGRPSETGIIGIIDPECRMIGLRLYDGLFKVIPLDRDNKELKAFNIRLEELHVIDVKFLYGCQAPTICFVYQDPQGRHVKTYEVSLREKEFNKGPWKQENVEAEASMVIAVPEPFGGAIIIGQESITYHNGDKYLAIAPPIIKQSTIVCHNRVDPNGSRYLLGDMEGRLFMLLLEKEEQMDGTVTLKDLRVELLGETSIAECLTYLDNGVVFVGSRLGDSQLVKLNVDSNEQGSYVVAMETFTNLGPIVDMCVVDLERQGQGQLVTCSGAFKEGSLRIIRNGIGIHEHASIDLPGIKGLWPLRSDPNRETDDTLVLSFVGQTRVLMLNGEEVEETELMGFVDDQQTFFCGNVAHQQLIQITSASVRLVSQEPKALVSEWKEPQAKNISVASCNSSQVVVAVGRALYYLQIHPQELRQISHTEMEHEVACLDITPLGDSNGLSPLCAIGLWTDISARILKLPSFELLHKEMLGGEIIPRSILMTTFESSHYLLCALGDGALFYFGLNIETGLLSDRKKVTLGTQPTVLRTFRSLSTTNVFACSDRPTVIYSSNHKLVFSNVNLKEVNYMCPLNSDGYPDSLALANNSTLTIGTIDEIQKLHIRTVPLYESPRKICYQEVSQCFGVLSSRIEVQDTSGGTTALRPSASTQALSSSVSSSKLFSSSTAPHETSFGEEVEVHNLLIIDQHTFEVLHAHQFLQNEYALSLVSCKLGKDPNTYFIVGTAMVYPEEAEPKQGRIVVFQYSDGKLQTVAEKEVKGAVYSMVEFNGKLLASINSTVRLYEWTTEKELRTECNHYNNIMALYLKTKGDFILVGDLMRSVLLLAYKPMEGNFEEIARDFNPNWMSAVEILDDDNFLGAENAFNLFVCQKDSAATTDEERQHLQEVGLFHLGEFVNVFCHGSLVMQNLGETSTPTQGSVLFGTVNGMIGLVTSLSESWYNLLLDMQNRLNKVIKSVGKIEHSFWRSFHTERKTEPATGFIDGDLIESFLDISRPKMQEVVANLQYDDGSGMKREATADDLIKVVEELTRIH

`COc1ccc(C(=O)NCCN2CCC3(CC2)CCN(Cc2ccc(-c4cc5c(-c6cc(F)cc(NC(=O)c7ccc(C(C)(C)O)cc7F)c6C)ncnc5[nH]4)cc2)C3)cc1N1CCC(=O)NC1=O` [Compound 35, N-(3-(6-(4-((8-(2-(3-(2,4-Dioxotetrahydropyrimidin-1(2H)-yl)-4-methoxybenzamido)ethyl)-2,8-diazaspiro[4.5]decan-2-yl)methyl)phenyl)-7H-pyrrolo[2,3-d]pyrimidin-4-yl)-5-fluoro-2-methylphenyl)-2-fluoro-4-(2-hydroxypropan-2-yl)benzamide]: the GI50 in the experiment on TMD8 cells (Homo sapiens) turned out to be 0.00346 µM; in the experiment with OCI-LY3 cells (Homo sapiens) it was 9.16 µM. The 50% degradation concentration (DC50) on BTK-GFP is 0.0611 µM. Further, at BTK-GFP, the “BTK deg Amax” value is 7.6%.

`COc1ccc(C(=O)N2CCC3(CCN(Cc4ccc(-c5cc6c(-c7cc(F)cc(NC(=O)c8ccc(C(C)(C)O)cc8F)c7C)ncnc6[nH]5)cc4)CC3CO)CC2)cc1N1CCC(=O)NC1=O` (racemic) [Compound 23, rac-N-(3-(6-(4-((9-(3-(2,4-Dioxotetrahydropyrimidin-1(2H)-yl)-4-methoxybenzoyl)-1 (hydroxymethyl)-3,9-diazaspiro[5.5]undecan-3-yl)methyl)phenyl)-7H-pyrrolo[2,3-d]pyrimidin-4-yl)-5-fluoro-2-methylphenyl)-2-fluoro-4-(2-hydroxypropan-2-yl)benzamide]: in the experiment with TMD8 cells (Homo sapiens), the GI50 amounted to 0.00535 µM. Moreover, the GI50 with OCI-LY3 cells (Homo sapiens) is over 10 µM. For the same compound, at BTK-GFP, the DC50 worked out at 0.0468 µM and the “BTK deg Amax” value stood at 10.4%.

Regarding `Cc1cc(F)c(C(=O)N(C)CCCCCNCc2ccc(-c3cc4c(-c5cc(F)cc(NC(=O)c6ccc(C(C)(C)O)cc6F)c5C)ncnc4[nH]3)cc2)cc1N1CCC(=O)NC1=O` [Compound 28, 5-(2,4-Dioxotetrahydropyrimidin-1(2H)-yl)-2-fluoro-N-(5-((4-(4-(5-fluoro-3-(2-fluoro-4-(2-hydroxypropan-2-yl)benzamido)-2-methylphenyl)-7H-pyrrolo[2,3-d]pyrimidin-6-yl)benzyl)amino)pentyl)-N,4-dimethylbenzamide], the GI50 in the experiment on TMD8 cells (Homo sapiens) is 0.00716 µM. Also, in the experiment on OCI-LY3 cells (Homo sapiens), the concentration for 50% growth inhibition (GI50) was 6.12 µM. Besides, at BTK-GFP, the half-maximal degradation concentration (DC50) was 0.0937 µM and the “BTK deg Amax” value is reported as 12.1%.

Turning to `Cc1c(NC(=O)c2ccc(C(C)(C)O)cc2F)cc(F)cc1-c1ncnc2[nH]c(-c3ccc(CNCCCCCN(C)C(=O)c4ccc(Cl)c(N5CCC(=O)NC5=O)c4)cc3)cc12` [Compound 42, 4-chloro-3-(2,4-dioxotetrahydropyrimidin-1(2H)-yl)-N-(5-((4-(4-(5-fluoro-3-(2-fluoro-4-(2-hydroxypropan-2-yl)benzamido)-2-methylphenyl)-7H-pyrrolo[2,3-d]pyrimidin-6-yl)benzyl)amino)pentyl)-N-methylbenzamide], in the experiment with TMD8 cells (Homo sapiens), the GI50 is 0.00534 µM. The concentration for 50% growth inhibition (GI50) in the experiment with OCI-LY3 cells (Homo sapiens) worked out at 8.92 µM. At BTK-GFP, the DC50 was 0.0595 µM and the “BTK deg Amax” value was 8.8%.

Turning to `COc1ccc(C(=O)N2CCC(C(=O)N3CCN(Cc4ccc(-c5cc6c(-c7cc(F)cc(NC(=O)c8ccc(C(C)(C)O)cc8F)c7C)ncnc6[nH]5)cc4)CC3)CC2)cc1N1CCC(=O)NC1=O` [Compound 33, N-(3-(6-(4-((4-(1-(3-(2,4-dioxotetrahydropyrimidin-1(2H)-yl)-4-methoxybenzoyl)piperidine-4-carbonyl)piperazin-1-yl)methyl)phenyl)-7H-pyrrolo[2,3-d]pyrimidin-4-yl)-5-fluoro-2-methylphenyl)-2-fluoro-4-(2-hydroxypropan-2-yl)benzamide], the GI50 was 0.00397 µM with TMD8 cells (Homo sapiens) and 4.29 µM with OCI-LY3 cells (Homo sapiens). Also, on BTK-GFP, the 50% degradation concentration (DC50) came to 0.0222 µM. Further, the “BTK deg Amax” value at BTK-GFP stood at 5.9%.

In the case of `COc1ccc(C(=O)N2CCC(O[C@H]3CC[C@H](Oc4ccc(-c5cc6c(-c7cc(F)cc(NC(=O)c8ccc(C(C)(C)O)cc8F)c7C)ncnc6[nH]5)cc4)CC3)CC2)cc1N1CCC(=O)NC1=O` [Compound 46, N-(3-(6-(4-(((1r,4r)-4-((1-(3-(2,4-dioxotetrahydropyrimidin-1(2H)-yl)-4-methoxybenzoyl)piperidin-4-yl)oxy)cyclohexyl)oxy)phenyl)-7H-pyrrolo[2,3-d]pyrimidin-4-yl)-5-fluoro-2-methylphenyl)-2-fluoro-4-(2-hydroxypropan-2-yl)benzamide], in the experiment on TMD8 cells, the 50% growth inhibitory concentration (GI50) was determined as 0.00359 µM. The GI50 in the experiment with OCI-LY3 cells was over 10 µM. Moreover, at BTK-GFP, it took 0.0017 µM to reach half-maximal degradation (DC50) and the “BTK deg Amax” value is 3.6%.

Take `COc1ccc(C(=O)N2CCC3(CCN(Cc4ccc(-c5cc6c(-c7cc(F)cc(NC(=O)c8ccc(C(C)(C)O)cc8F)c7C)ncnc6[nH]5)cc4)C3)CC2)cc1N1CCC(=O)NC1=O` [Compound 49, N-(3-(6-(4-((8-(3-(2,4-dioxotetrahydropyrimidin-1(2H)-yl)-4-methoxybenzoyl)-2,8-diazaspiro[4.5]decan-2-yl)methyl)phenyl)-7H-pyrrolo[2,3-d]pyrimidin-4-yl)-5-fluoro-2-methylphenyl)-2-fluoro-4-(2-hydroxypropan-2-yl)benzamide]: the concentration for 50% growth inhibition (GI50) with TMD8 cells (Homo sapiens) worked out at 0.00535 µM. The concentration for 50% growth inhibition (GI50) with OCI-LY3 cells (Homo sapiens) came out at 4.84 µM. Moreover, at BTK-GFP, it took 0.0703 µM to reach half-maximal degradation (DC50) and the “BTK deg Amax” value is on record as 49.4%.

For the compound `COc1ccc(C(=O)N2CCC(CCN3CCC(Oc4ccc(-c5cc6c(-c7cc(F)cc(NC(=O)c8ccc(C(C)(C)O)cc8F)c7C)ncnc6[nH]5)cc4)CC3)CC2)cc1N1CCC(=O)NC1=O` [Compound 38, N-(3-(6-(4-((1-(2-(1-(3-(2,4-dioxotetrahydropyrimidin-1(2H)-yl)-4-methoxybenzoyl)piperidin-4-yl)ethyl)piperidin-4-yl)oxy)phenyl)-7H-pyrrolo[2,3-d]pyrimidin-4-yl)-5-fluoro-2-methylphenyl)-2-fluoro-4-(2-hydroxypropan-2-yl)benzamide], the results for the GI50 with TMD8 cells (Homo sapiens) and in the experiment on OCI-LY3 cells (Homo sapiens) were 0.00051 µM and 4.44 µM, respectively. Moreover, the DC50 at BTK-GFP was 0.0009 µM. In addition, the “BTK deg Amax” value at BTK-GFP amounted to 4.1%.

The term GI50 denotes the concentration that inhibits growth by half. A word on the DC50: it is the concentration giving 50% degradation. Higher therefore signals degradation only at high concentration.
